Results as given in PMC8371461 (Frontiers in Pharmacology, 2021).

How the values were obtained:
MKNK1 = molecular target: T1, MKNK1 (Homo sapiens, UniProt Q9BUB5); test: kinome scan; type: binding; details: 10 µM
T1 construct: purchased DiscoverX (KINOMEscan)

FES = molecular target: T2, FES (Homo sapiens, UniProt P07332); test: kinome scan; type: binding; details: 10 µM
T2 construct: purchased DiscoverX (KINOMEscan)

[1] = molecular target: T3, ABL1(Q252H)-nonphosphorylated (Homo sapiens, UniProt P00519, Q252H); test: kinome scan; type: binding; details: 10 µM
T3 construct: purchased DiscoverX (KINOMEscan)

PIK3CA(E545A) = molecular target: T4, PIK3CA(E545A) (Homo sapiens, UniProt P42336, E545A); test: kinome scan; type: binding; details: 10 µM
T4 construct: purchased DiscoverX (KINOMEscan)
T4 sequence (P42336 whole entry E545A): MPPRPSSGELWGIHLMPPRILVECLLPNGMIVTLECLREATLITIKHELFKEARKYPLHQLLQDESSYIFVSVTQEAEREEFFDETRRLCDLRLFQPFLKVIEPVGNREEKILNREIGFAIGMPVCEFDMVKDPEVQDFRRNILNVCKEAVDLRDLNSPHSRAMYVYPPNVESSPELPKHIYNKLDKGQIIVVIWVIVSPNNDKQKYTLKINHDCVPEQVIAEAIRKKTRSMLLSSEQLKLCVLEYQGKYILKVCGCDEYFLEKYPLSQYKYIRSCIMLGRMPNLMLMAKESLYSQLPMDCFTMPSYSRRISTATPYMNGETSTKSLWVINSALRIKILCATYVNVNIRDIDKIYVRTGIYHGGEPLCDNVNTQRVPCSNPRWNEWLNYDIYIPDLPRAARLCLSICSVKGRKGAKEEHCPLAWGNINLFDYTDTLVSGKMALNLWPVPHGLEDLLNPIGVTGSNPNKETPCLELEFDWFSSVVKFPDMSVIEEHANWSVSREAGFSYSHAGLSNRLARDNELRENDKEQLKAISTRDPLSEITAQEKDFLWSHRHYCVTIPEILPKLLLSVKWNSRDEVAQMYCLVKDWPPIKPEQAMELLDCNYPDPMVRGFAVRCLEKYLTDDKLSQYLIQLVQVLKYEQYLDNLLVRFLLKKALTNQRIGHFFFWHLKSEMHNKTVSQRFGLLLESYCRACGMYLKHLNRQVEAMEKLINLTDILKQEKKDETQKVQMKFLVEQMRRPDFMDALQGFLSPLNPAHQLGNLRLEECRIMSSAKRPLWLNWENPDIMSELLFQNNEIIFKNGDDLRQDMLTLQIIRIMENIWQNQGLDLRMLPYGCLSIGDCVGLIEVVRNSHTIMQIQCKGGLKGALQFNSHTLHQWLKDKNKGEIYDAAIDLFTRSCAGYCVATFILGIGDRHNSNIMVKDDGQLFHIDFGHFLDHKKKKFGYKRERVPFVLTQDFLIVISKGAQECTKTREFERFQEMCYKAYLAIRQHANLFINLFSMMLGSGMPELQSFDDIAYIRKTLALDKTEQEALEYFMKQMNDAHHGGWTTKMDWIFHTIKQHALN

HeLa cells = test: LC3B positive autophagosomes, immunofluorescent staining; type: cell-based; details: 10 µM, three days
Procedure: Cells were fixed with PBS containing 0.5% of para-formaldehyde for 15 min at room temperature. After three washing steps in PBS, cells were permeabilized with PBS containing 0.3% of Triton X-100 (Sigma) for 1 h at room temperature. After washing with PBS three times, cells were incubated overnight with the anti-LC3B antibody in PBS with 1% bovine serum albumin (Sigma) at 4°C. After three washing steps in PBS, cells were incubated with the fluorescent secondary antibody for 90 min at 4°C in PBS with 1% bovine serum albumin. They were then incubated with […] DAPI (Thermofisher) in PBS for 15 min. After washing with PBS, cells were rinsed once in water prior to mounting in the FluorSave reagent (Millipore).
Depending of these transitory environmental conditions, autophagy can either promote survival or apoptosis ([Degtyarev et al., 2008]). PIK/AKT pathway inhibition has been reported to increase cell autophagy ([Palmieri et al., 2017]). More specifically, PIP4K2C has been described as a down-regulator of autophagy ([Sharma et al., 2019]).

CSNK1G3 = molecular target: T5, CSNK1G3 (Homo sapiens, UniProt Q9Y6M4); test: kinome scan; type: binding
T5 construct: purchased DiscoverX (KINOMEscan)
T5 sequence (Q9Y6M4 whole entry): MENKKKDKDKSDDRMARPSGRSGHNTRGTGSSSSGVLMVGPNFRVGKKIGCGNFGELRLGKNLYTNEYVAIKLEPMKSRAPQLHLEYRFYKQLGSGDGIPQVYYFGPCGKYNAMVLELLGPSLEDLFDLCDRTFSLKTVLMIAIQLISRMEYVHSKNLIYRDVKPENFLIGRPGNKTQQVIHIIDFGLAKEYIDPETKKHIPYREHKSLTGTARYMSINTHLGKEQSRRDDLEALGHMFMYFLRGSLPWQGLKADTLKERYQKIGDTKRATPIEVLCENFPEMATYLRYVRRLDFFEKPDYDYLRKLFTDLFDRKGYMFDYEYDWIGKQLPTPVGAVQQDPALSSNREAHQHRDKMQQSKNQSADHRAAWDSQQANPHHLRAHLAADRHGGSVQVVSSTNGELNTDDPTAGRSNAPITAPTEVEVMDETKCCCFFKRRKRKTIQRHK

EGFR(E746-A750del) = molecular target: T6, EGFR(E746-A750del) (Homo sapiens, UniProt P00533, DEL746-750); test: kinome scan; type: binding; details: 10 µM
T6 construct: purchased DiscoverX (KINOMEscan)

EPHA5 = molecular target: T7, EPHA5 (Homo sapiens, UniProt P54756); test: kinome scan; type: binding; details: 10 µM
T7 construct: purchased DiscoverX (KINOMEscan)

MLCK = molecular target: T8, MLCK (Homo sapiens, UniProt Q32MK0); test: kinome scan; type: binding; details: 10 µM
T8 construct: purchased DiscoverX (KINOMEscan)

[2] = molecular target: T9, RSK3(Kin.Dom.1-N-terminal) (Homo sapiens, UniProt Q15349); test: kinome scan; type: binding; details: 10 µM
T9 construct: RSK3(Kin.Dom.1-N-terminal); purchased DiscoverX (KINOMEscan)
T9 sequence (Q15349 59-318 limits assumed): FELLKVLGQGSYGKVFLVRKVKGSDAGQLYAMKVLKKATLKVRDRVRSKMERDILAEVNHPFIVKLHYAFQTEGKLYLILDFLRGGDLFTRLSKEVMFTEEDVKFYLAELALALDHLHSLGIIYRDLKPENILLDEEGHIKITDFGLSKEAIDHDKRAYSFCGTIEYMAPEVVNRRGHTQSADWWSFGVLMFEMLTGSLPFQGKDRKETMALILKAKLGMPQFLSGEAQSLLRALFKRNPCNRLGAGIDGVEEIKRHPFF

PAK4 = molecular target: T10, PAK4 (Homo sapiens, UniProt O96013); test: kinome scan; type: binding; details: 10 µM
T10 construct: purchased DiscoverX (KINOMEscan)
T10 sequence (O96013 whole entry): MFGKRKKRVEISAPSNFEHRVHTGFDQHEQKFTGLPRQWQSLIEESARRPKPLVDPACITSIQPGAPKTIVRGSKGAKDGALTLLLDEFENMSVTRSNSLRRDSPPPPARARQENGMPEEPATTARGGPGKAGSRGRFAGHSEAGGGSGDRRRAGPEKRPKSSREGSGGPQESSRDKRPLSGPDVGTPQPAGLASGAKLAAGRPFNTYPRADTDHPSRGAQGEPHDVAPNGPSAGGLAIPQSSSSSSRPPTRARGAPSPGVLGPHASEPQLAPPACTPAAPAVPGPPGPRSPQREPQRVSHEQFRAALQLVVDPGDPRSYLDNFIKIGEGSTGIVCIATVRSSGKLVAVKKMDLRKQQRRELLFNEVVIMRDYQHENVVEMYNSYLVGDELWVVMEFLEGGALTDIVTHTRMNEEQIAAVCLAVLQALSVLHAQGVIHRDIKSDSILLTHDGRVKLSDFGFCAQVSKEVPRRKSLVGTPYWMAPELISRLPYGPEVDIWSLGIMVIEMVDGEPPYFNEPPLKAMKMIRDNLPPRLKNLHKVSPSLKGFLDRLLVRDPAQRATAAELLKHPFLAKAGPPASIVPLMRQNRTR

[3] = molecular target: T11, JAK1(JH2domain-pseudokinase) (Homo sapiens, UniProt P23458); test: kinome scan; type: binding; details: 10 µM
T11 construct: JAK1(JH2domain-pseudokinase); purchased DiscoverX (KINOMEscan)

RET(M918T) = molecular target: T12, RET(M918T) (Homo sapiens, UniProt P07949, M918T); test: kinome scan; type: binding; details: 10 µM
T12 construct: purchased DiscoverX (KINOMEscan)

SRPK2 = molecular target: T13, SRPK2 (Homo sapiens, UniProt P78362); test: kinome scan; type: binding; details: 10 µM
T13 construct: purchased DiscoverX (KINOMEscan)

MEK2 = molecular target: T14, MEK2 (Homo sapiens, UniProt P36507); test: kinome scan; type: binding; details: 10 µM
T14 construct: purchased DiscoverX (KINOMEscan)
T14 sequence (P36507 whole entry): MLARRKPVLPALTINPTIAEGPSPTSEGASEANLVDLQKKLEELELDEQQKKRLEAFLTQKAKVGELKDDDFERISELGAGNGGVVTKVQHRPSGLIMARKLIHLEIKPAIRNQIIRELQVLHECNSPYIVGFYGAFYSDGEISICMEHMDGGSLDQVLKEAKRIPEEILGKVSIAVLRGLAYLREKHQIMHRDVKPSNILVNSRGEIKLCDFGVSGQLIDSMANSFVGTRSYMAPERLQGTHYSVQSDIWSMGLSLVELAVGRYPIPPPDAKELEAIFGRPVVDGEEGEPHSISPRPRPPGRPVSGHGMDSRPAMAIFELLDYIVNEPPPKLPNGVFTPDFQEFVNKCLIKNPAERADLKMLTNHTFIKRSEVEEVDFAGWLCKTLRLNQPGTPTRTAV

ERBB3 = molecular target: T15, ERBB3 (Homo sapiens, UniProt P21860); test: kinome scan; type: binding; details: 10 µM
T15 construct: purchased DiscoverX (KINOMEscan)

HIPK3 = molecular target: T16, HIPK3 (Homo sapiens, UniProt Q9H422); test: kinome scan; type: binding; details: 10 µM
T16 construct: purchased DiscoverX (KINOMEscan)

DYRK1A = molecular target: T17, DYRK1A (Homo sapiens, UniProt Q13627); test: kinome scan; type: binding; details: 10 µM
T17 construct: purchased DiscoverX (KINOMEscan)

MINK = molecular target: T18, MINK (Homo sapiens, UniProt Q8N4C8); test: kinome scan; type: binding; details: 10 µM
T18 construct: purchased DiscoverX (KINOMEscan)

GRK4 = molecular target: T19, GRK4 (Homo sapiens, UniProt P32298); test: kinome scan; type: binding; details: 10 µM
T19 construct: purchased DiscoverX (KINOMEscan)

DLK = molecular target: T20, DLK (Homo sapiens, UniProt Q12852); test: kinome scan; type: binding; details: 10 µM
T20 construct: purchased DiscoverX (KINOMEscan)

CAMK2B = molecular target: T21, CAMK2B (Homo sapiens, UniProt Q13554); test: kinome scan; type: binding; details: 10 µM
T21 construct: purchased DiscoverX (KINOMEscan)

WEE2 = molecular target: T22, WEE2 (Homo sapiens, UniProt P0C1S8); test: kinome scan; type: binding; details: 10 µM
T22 construct: purchased DiscoverX (KINOMEscan)

DRAK2 = molecular target: T23, DRAK2 (Homo sapiens, UniProt O94768); test: kinome scan; type: binding; details: 10 µM
T23 construct: purchased DiscoverX (KINOMEscan)

p38-beta = molecular target: T24, p38-beta (Homo sapiens, UniProt Q15759); test: kinome scan; type: binding; details: 10 µM
T24 construct: purchased DiscoverX (KINOMEscan)
T24 sequence (Q15759 whole entry): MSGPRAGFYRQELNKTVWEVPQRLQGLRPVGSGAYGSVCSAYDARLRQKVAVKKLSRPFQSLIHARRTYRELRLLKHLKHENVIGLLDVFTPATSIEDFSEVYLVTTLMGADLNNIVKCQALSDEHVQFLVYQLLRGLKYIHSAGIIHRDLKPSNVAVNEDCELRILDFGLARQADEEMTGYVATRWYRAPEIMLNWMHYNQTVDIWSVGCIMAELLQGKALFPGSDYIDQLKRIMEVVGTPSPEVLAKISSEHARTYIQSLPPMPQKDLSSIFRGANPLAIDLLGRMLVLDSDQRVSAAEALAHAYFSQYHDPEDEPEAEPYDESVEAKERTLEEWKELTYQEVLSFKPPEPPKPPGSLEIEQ

p38-alpha = molecular target: T25, p38-alpha (Homo sapiens, UniProt Q16539); test: kinome scan; type: binding; details: 10 µM
T25 construct: purchased DiscoverX (KINOMEscan)

ACVRL1 = molecular target: T26, ACVRL1 (Homo sapiens, UniProt P37023); test: kinome scan; type: binding; details: 10 µM
T26 construct: purchased DiscoverX (KINOMEscan)

FLT3 = molecular target: T27, FLT3 (Homo sapiens, UniProt P36888); test: kinome scan; type: binding
T27 construct: purchased DiscoverX (KINOMEscan)
T27 sequence (P36888 27-993): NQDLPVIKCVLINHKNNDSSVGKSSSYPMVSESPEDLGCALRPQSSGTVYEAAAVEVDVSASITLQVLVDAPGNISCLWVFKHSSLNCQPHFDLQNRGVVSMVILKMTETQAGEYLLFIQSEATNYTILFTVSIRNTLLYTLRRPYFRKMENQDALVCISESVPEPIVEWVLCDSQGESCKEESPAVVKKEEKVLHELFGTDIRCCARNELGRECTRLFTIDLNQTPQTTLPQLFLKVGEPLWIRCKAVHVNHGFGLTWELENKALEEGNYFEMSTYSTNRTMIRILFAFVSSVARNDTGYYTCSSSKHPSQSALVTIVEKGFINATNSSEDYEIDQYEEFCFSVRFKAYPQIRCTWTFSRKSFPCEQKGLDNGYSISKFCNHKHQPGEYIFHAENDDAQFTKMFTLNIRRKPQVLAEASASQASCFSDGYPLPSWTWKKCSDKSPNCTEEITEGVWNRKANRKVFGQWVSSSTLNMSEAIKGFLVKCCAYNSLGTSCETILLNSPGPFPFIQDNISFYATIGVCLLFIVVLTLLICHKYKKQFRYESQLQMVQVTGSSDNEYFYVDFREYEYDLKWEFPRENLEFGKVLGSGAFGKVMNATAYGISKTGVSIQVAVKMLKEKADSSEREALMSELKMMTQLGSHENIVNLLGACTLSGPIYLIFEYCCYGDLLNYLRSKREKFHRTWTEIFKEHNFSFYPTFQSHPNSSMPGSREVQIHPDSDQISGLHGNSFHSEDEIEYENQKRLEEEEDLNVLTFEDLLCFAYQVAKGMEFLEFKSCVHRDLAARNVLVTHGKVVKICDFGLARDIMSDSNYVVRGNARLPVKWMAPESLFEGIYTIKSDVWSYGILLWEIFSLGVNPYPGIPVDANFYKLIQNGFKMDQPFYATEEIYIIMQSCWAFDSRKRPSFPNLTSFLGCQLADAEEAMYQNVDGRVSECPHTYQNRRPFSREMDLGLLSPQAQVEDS

WEE1 = molecular target: T28, WEE1 (Homo sapiens, UniProt P30291); test: kinome scan; type: binding; details: 10 µM
T28 construct: purchased DiscoverX (KINOMEscan)

ROS1 = molecular target: T29, ROS1 (Homo sapiens, UniProt P08922); test: kinome scan; type: binding; details: 10 µM
T29 construct: purchased DiscoverX (KINOMEscan)

LCK = molecular target: T30, LCK (Homo sapiens, UniProt P06239); test: kinome scan; type: binding; details: 10 µM
T30 construct: purchased DiscoverX (KINOMEscan)

CDK4-cyclinD1 = molecular target: T31, CDK4-cyclinD1 (Homo sapiens, UniProt P11802); test: kinome scan; type: binding; details: 10 µM
T31 construct: purchased DiscoverX (KINOMEscan)

RET = molecular target: T32, RET (Homo sapiens, UniProt P07949); test: kinome scan; type: binding; details: 10 µM
T32 construct: purchased DiscoverX (KINOMEscan)

[4] = molecular target: T33, ABL1(F317I)-nonphosphorylated (Homo sapiens, UniProt P00519, F317I); test: kinome scan; type: binding; details: 10 µM
T33 construct: purchased DiscoverX (KINOMEscan)

EPHA1 = molecular target: T34, EPHA1 (Homo sapiens, UniProt P21709); test: kinome scan; type: binding; details: 10 µM
T34 construct: purchased DiscoverX (KINOMEscan)
T34 sequence (P21709 26-976): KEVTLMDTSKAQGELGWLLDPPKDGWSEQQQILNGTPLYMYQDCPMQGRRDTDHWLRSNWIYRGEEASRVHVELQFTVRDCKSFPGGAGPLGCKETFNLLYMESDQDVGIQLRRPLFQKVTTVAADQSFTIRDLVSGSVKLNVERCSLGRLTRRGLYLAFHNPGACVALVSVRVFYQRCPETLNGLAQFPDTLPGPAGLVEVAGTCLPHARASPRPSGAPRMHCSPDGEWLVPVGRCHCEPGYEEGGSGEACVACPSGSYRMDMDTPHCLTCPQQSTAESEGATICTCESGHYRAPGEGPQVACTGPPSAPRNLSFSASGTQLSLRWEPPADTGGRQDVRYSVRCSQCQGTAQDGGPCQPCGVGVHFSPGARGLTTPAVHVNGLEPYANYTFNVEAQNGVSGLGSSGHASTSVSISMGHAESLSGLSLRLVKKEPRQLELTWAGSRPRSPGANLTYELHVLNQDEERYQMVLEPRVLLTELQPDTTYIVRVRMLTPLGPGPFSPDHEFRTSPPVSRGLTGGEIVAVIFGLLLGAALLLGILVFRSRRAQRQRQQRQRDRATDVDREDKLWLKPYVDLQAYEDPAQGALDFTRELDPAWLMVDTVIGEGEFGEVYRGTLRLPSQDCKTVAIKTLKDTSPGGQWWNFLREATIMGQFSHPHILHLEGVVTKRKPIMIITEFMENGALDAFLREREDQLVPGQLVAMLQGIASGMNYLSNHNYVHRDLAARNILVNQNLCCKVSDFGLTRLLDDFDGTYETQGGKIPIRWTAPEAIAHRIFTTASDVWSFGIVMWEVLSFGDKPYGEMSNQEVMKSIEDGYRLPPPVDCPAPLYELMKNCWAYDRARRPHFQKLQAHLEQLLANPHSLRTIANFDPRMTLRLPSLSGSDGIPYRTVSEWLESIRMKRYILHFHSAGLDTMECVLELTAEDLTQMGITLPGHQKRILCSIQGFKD

FLT3(ITD) = test: kinome scan; type: binding, human; details: 10 µM

With `Nc1ccc(N=Nc2ccccc2)c(N)n1` [phenazopyridine, 2,6-diamino-3-(phenylazo)pyridine] the kinase inhibition (MKNK1) was 37, the kinase inhibition (FES) was 100 and the kinase inhibition [1] was 90. For the same compound, the kinase inhibition (PIK3CA(E545A)) was 100, the “number of LC3B-positive autophagosomes” value (HeLa cells) was “increased” and the kinase inhibition (CSNK1G3; CSNK1G3, 10 µM) was 100. For the same compound, the remaining binding at 10 µM (CSNK1G3; Casein kinase 1 isoform γ 3 (CK1), read-out: Kinome scan (% of control at 10 µM)) was 44%, the “remaining binding (% of control)” value (EGFR(E746-A750del)) was 69 and the kinase inhibition (EPHA5) was 97. It also gave a kinase inhibition (MLCK) of 96, a kinase inhibition [2] of 100 and a kinase inhibition (PAK4) of 100. For the same compound, the kinase inhibition [3] was 32, the kinase inhibition (RET(M918T)) was 100 and the kinase inhibition (SRPK2) was 100. For the same compound, the kinase inhibition (MEK2) was 83, the kinase inhibition (ERBB3) was 91 and the kinase inhibition (HIPK3) was 98. For the same compound, the “remaining binding (% of control)” value (DYRK1A) was 73, the kinase inhibition (MINK) was 90 and the kinase inhibition (GRK4) was 95. The kinase inhibition (DLK) was 73, the kinase inhibition (CAMK2B) was 100 and the kinase inhibition (WEE2) was 100. The kinase inhibition (DRAK2) was 100, the kinase inhibition (p38-beta) was 83 and the kinase inhibition (p38-alpha) was 100. For the same compound, the kinase inhibition (ACVRL1) was 71, the “remaining binding (% of control)” value (FLT3; 10 µM) was 25 and the remaining binding at 10 µM (FLT3; read-out: % Of control) was 25%. It also gave a kinase inhibition (WEE1) of 100, a kinase inhibition (ROS1) of 100 and a kinase inhibition (LCK) of 96. For the same compound, the kinase inhibition (CDK4-cyclinD1) was 100, the kinase inhibition (RET) was 100 and the kinase inhibition [4] was 96. The kinase inhibition (EPHA1) was 100 and the “remaining binding (% of control)” value (FLT3(ITD)) was 55.
